According to publication PMC11530130, “Peripherally restricted PICK1 inhibitor mPD5 ameliorates pain behaviors in murine inflammatory and neuropathic pain models” (JCI Insight, 2024):
Values joined by “and” are separate entries in the source; they are usually repeats but may differ in a detail not shown here. Equal entries are not always repeated.

Experiments:
naive mice = assay: Single exposure place preference (sePP), naive mice; format: in vivo, mouse
Procedure: On days 6-8, the escape hole was moved
90 degrees, and all mice went through the second bout of training. On day nine, a second probe trial was performed testing the reversal learning of the mice.
Cancer induced bone pain was induced as described in the “Induction of cancer induced bone pain (CIBP model)"-section. For the assessment of limb use, all mice from one cage were placed in an empty transparent plastic box and left for ten min to habituate. One mouse at a time was moved by tunnel handling or scooping to an identical plastic box for the limb use test. […]
gait, 3 Insignificant limping, 2 Significant limping and shift in bodyweight towards the healthy limb 1 Significant limping and partial lack of use of ipsilateral leg 0 Total lack of use of ipsilateral leg. A score of 0 was used as a humane endpoint. Urine and faeces were cleaned from the plastic box with a dry paper towel between mice from the same cage, and a new plastic box was used for mice from different cages. The limb use test was video filmed for later […]
Assessment of static weight bearing. […]
Initial perception of the drugs was measured by single exposure place preference experiments performed in an elongated three compartment apparatus (67.5 cm x 24 cm) with a biased design of different floor textures and wall patterns and a neutral zone in the middle. […]

[1] = system: mice, spared nerve injury (SNI) model; assay: Ultrasonic vocalisation (USV) recordings at 37 kHz, SNI mice; format: in vivo, mouse; settings: for Ultrasonic vocalisations, individual animals (Fig 5E): SNI mice
Procedure: Time spent in each compartment was […]
compartment was used to define three even groups.
Conditioning (DAY 2-9): Mice were injected s.c. with PBS, morphine (10 mg/kg) (RH Pharmacy, Denmark, Vnr. 475249), or 10 μmol/kg mPD5 immediately before being placed in and confined to the appropriate compartment for 40 min. Drug was paired to the least-preferred compartment, conditioning was alternated so that mice were never placed in the same compartment two days in a row, and the day on which they were exposed to drug was […]
Preference test (DAY 10): Mice were allowed to freely move between the two compartments […]
Ultrasonic vocalisation (USV) recordings.
Mice were left in Med-Associates square behavioral chambers (27 cm x 27 cm) to freely roam around for 60 min, four days in a row. […] On day three, both control and SNI mice were placed directly in the chambers and recorded for 60 min. On day four, control mice were injected s.c. with PBS, and SNI mice were injected with either 10 μmol/kg mPD5 or PBS immediately before being placed in the chambers and recorded for 60 min. The recordings were analyzed using the Avisoft SASLab Pro software (Version 5.02.07, Avisoft Bioacoustics) as described in (12), applying a fast fourier transformation (FFT) (1024 FTT length, 100% frame size, Blackman window, and 87.5% time window overlap). […]
To compare pain-relevant vocalizations, only short and constant USVs of 37 kHz were counted […]
Mice were pretreated with 10 μmol/kg mPD5, 10 mg/kg morphine (RH Pharmacy, Denmark, Vnr. 475249), or PBS 45 min before habituation to observation container (glass cylinder surrounded by mirrors on 2 sides) for 15 min. […] Mice were recorded for three min after i.pl. injection with capsaicin and euthanized the same day. Mice were scored manually for the amount of time spent paw licking within three min after capsaicin administration. […]

CCCCCCCCCCCCCC(=O)N(CCOCCOCCC(=O)N[C@@H](Cc1c[nH]cn1)C(=O)N[C@@H](Cc1c[nH]c2ccccc12)C(=O)N[C@@H](CC(C)C)C(=O)N[C@@H](CCCCN)C(=O)N[C@H](C(=O)O)C(C)C)CCOCCOCCC(=O)N[C@@H](Cc1c[nH]cn1)C(=O)N[C@@H](Cc1c[nH]c2ccccc12)C(=O)N[C@@H](CC(C)C)C(=O)N[C@@H](CCCCN)C(=O)N[C@H](C(=O)O)C(C)C [mPD5, myristoyl-NPEG4-(HWLKV)2]
time spent in the paired compartment, individual mice (naive mice; naive mice conditioned with 30 μmol/kg): 310.53 and 374.063 and 737.926 and 573.794 and 360.996 and 424.662 and 697.46
preference compared to PBS (intrinsic rewarding properties, sePP) (naive mice; naive mice, 30 μmol/kg): did not show any preference
Ultrasonic vocalisations, individual animals (Fig 5E) ([1]; Baseline): 4 and 10 and 8 and 9 and 7 and 5
Ultrasonic vocalisations, individual animals (Fig 5E) ([1]; min 60-120 post injection): 3 and 8 and 1 and 7
effect on SNI-induced increase of vocalizations at 37 kHz ([1]; SNI, female mice, s.c. 10 μmol/kg, to the level of the naive mice): fully reversed
